US7129256B2, “Antiparkinsonism drugs” (Shionogi & Co., Ltd., priority 2000, dated 2006)
Marks after values point to notes of the source that are not given here.

Experiments:
[1] = tested on: mice pre-treated with reserpine; assay: reserpine-induced catalepsy test (bar test, catalepsy score); format: in vivo, ddy mice (male); conditions: reserpine 5 mg/kg i.p.
Description: The effects of compound (IX) in single administration and in combination with L-DOPA on cataleptic responses were examined in mice pre-treated with a monoamine-depleting drug, reserpine.
Reserpine (5 mg/kg, i.p., Apoplon Inj, Daiichi Pharmaceutical) was administrated to ddy mice (male). On the next day, compound (IX) (0.3, 1, 3 mg/kg, p.o.) with or without L-DOPA (25, 100 mg/kg, i.p., dissolved in 0.1N HCl and diluted with distilled water for injection (Otsuka Pharmaceutical)) was administrated to the mice and catalepsy test was performed after 1 hour. When L-DOPA was administrated, mice were pre-treated with carbidopa (25 mg/kg, i.p., 0.5% lactic acid) before 30 min.
The forelimbs or hindlimbs of each mouse were placed on a 4.5 cm high horizontal bar and the time was measured (cut off time 30 sec) until both legs reach the floor. The cataleptic responses were scored as follows (less than 5 sec.: 0 point, 5 sec. to less than 10 sec.: 1 point, 10 sec to less than 15 sec.: 2 points, 15 sec. to than 20 sec.: 3 points, 20 sec. to less than 25 sec.: 4 points, 25 sec. to less than 30 sec.: 5 points, 30 sec. or more: 6 points).
For forelimbs, the scores for 3 repetitive tests were summated. […] The catalepsy scores were calculated as the total scores for forelimbs and hindlimbs.

normal mice = assay: spontaneous locomotor activity after oral administration to normal mice (SCANET); format: in vivo, C57BL/6 mice (male); set-up: spontaneous locomotor activity / spontaneous locomotor activity, Total: unit not given here; conditions: for spontaneous locomotor activity, Total: total for 5 hours after administration
Description: The enhancing effects of compound (IX) on the spontaneous locomotor activity were examined in normal mice.
Compound (IX) was orally administrated to C57BL/6 mice (male) and the spontaneous locomotor activity was measured with a locomotor activity measuring apparatus (SCANET, TOYO sangyo). Mice were familiarized to the cage of the apparatus for at least 60 min. Compound (IX) (1,3,10 mg/kg) or vehicle (vehicle, distilled water Otsuka) was administrated orally. The spontaneous locomotor activity was measured for 5 hours after the mice were returned to the cage.

MPTP-treated mice = assay: spontaneous locomotor activity of MPTP-treated mice; format: in vivo, C57BL/6 mice (male); conditions: MPTP 40 mg/kg × 2
Description: Mice injected with a dopaminergic toxin, MPTP were used as a model for Parkinson's disease and the effects of single administration of compound (IX) on the reduction of the spontaneous locomotor activity caused by MPTP-treatment were examined.
MPTP (40 mg/kg, i.p., saline) was injected twice at 24-hr intervals to C57BL/6 mice (male), and the day after the last administration, the mice were placed in locomotor activity measuring apparatus. After 30 min, compound (IX) alone (0.3, 1, 3 mg/kg, p.o.) was administered.

Which “catalepsy score, mean” value ([1]; L-DOPA 100 mg/kg i.p. + solvent p.o., 1 hour after administration) does the source give for `N[C@@H](Cc1ccc(O)c(O)c1)C(=O)O` [L-DOPA, reference compound] here?
Its value is 23.0.

With `C[C@@H]1OC(=O)N[C@@H]1C(=O)NC(Cc1cscn1)C(=O)N1CCC[C@H]1C` (stereo in doubt) [Compound (IX)] as the compound, how does the spontaneous locomotor activity (normal mice; 1 mg/kg p.o., Time 0–30) read?
Its spontaneous locomotor activity is 3737.

And the spontaneous locomotor activity (normal mice; 1 mg/kg p.o., Time 30–0 (before administration))?
Its spontaneous locomotor activity is 436.

What about the spontaneous locomotor activity (normal mice; 1 mg/kg p.o., Time 30–60) of the same compound?
Its spontaneous locomotor activity is 842.

And the spontaneous locomotor activity (normal mice; 1 mg/kg p.o., Time 60–30 (before administration))?
The spontaneous locomotor activity was 1016.

What about the spontaneous locomotor activity (normal mice; 1 mg/kg p.o., Time 60–90) of the same compound?
Its spontaneous locomotor activity is 1178.

And the spontaneous locomotor activity (normal mice; 1 mg/kg p.o., Time 90–120)?
The spontaneous locomotor activity was 1281.

What about the spontaneous locomotor activity (normal mice; 1 mg/kg p.o., Time 120–150) of the same compound?
Its spontaneous locomotor activity is 991.

What about the spontaneous locomotor activity (normal mice; 1 mg/kg p.o., Time 150–180) of the same compound?
Its spontaneous locomotor activity is 273.

What about the spontaneous locomotor activity (normal mice; 1 mg/kg p.o., Time 180–210) of the same compound?
Its spontaneous locomotor activity is 411.

What about the spontaneous locomotor activity (normal mice; 1 mg/kg p.o., Time 210–240) of the same compound?
Its spontaneous locomotor activity is 135.

What about the spontaneous locomotor activity (normal mice; 1 mg/kg p.o., Time 240–270) of the same compound?
The spontaneous locomotor activity was 463.

And the spontaneous locomotor activity (normal mice; 1 mg/kg p.o., Time 270–300)?
The spontaneous locomotor activity was 366.

And the “spontaneous locomotor activity, Total” value (normal mice; 1 mg/kg p.o.)?
The value was 9676.

What about the spontaneous locomotor activity (normal mice; 3 mg/kg p.o., Time 0–30) of the same compound?
Its spontaneous locomotor activity is 3755.

What about the spontaneous locomotor activity (normal mice; 3 mg/kg p.o., Time 30–0 (before administration)) of the same compound?
The spontaneous locomotor activity was 782.

And the spontaneous locomotor activity (normal mice; 3 mg/kg p.o., Time 30–60)?
Its spontaneous locomotor activity is 2626.

What about the spontaneous locomotor activity (normal mice; 3 mg/kg p.o., Time 60–30 (before administration)) of the same compound?
Its spontaneous locomotor activity is 2349.

What about the spontaneous locomotor activity (normal mice; 3 mg/kg p.o., Time 60–90) of the same compound?
Its spontaneous locomotor activity is 2690.

What about the spontaneous locomotor activity (normal mice; 3 mg/kg p.o., Time 90–120) of the same compound?
The spontaneous locomotor activity was 2632.

And the spontaneous locomotor activity (normal mice; 3 mg/kg p.o., Time 120–150)?
The spontaneous locomotor activity was 2230.

What about the spontaneous locomotor activity (normal mice; 3 mg/kg p.o., Time 150–180) of the same compound?
Its spontaneous locomotor activity is 868.

What about the spontaneous locomotor activity (normal mice; 3 mg/kg p.o., Time 180–210) of the same compound?
Its spontaneous locomotor activity is 377.

And the spontaneous locomotor activity (normal mice; 3 mg/kg p.o., Time 210–240)?
Its spontaneous locomotor activity is 940.

What about the spontaneous locomotor activity (normal mice; 3 mg/kg p.o., Time 240–270) of the same compound?
The spontaneous locomotor activity was 266.

What about the spontaneous locomotor activity (normal mice; 3 mg/kg p.o., Time 270–300) of the same compound?
Its spontaneous locomotor activity is 597.

And the “spontaneous locomotor activity, Total” value (normal mice; 3 mg/kg p.o., P < 0.05 vs vehicle)?
Its value is 16941*.

And the spontaneous locomotor activity (normal mice; 10 mg/kg p.o., Time 0–30)?
The spontaneous locomotor activity was 5910.

What about the spontaneous locomotor activity (normal mice; 10 mg/kg p.o., Time 30–0 (before administration)) of the same compound?
Its spontaneous locomotor activity is 401.

And the spontaneous locomotor activity (normal mice; 10 mg/kg p.o., Time 30–60)?
Its spontaneous locomotor activity is 5079.

And the spontaneous locomotor activity (normal mice; 10 mg/kg p.o., Time 60–30 (before administration))?
Its spontaneous locomotor activity is 1700.

What about the spontaneous locomotor activity (normal mice; 10 mg/kg p.o., Time 60–90) of the same compound?
The spontaneous locomotor activity was 5485.

And the spontaneous locomotor activity (normal mice; 10 mg/kg p.o., Time 90–120)?
Its spontaneous locomotor activity is 6138.

And the spontaneous locomotor activity (normal mice; 10 mg/kg p.o., Time 120–150)?
The spontaneous locomotor activity was 5582.

What about the spontaneous locomotor activity (normal mice; 10 mg/kg p.o., Time 150–180) of the same compound?
Its spontaneous locomotor activity is 5390.

And the spontaneous locomotor activity (normal mice; 10 mg/kg p.o., Time 180–210)?
Its spontaneous locomotor activity is 4218.

What about the spontaneous locomotor activity (normal mice; 10 mg/kg p.o., Time 210–240) of the same compound?
Its spontaneous locomotor activity is 3297.

And the spontaneous locomotor activity (normal mice; 10 mg/kg p.o., Time 240–270)?
Its spontaneous locomotor activity is 2305.

And the spontaneous locomotor activity (normal mice; 10 mg/kg p.o., Time 270–300)?
Its spontaneous locomotor activity is 1457.

And the “spontaneous locomotor activity, Total” value (normal mice; 10 mg/kg p.o., P < 0.01 vs vehicle)?
Its value is 44861**.

And the “dose that increased the spontaneous locomotor activity” value (normal mice; p.o., normal mice)?
The value was no less than 3 mg/kg.

And the “catalepsy score, mean” value ([1]; compound (IX) 0.3 mg/kg p.o. + L-DOPA 100 mg/kg i.p., 1 hour)?
The value was 17.4.

What about the “spontaneous locomotor activity, Total” value (MPTP-treated mice; compound (IX) alone 0.3 mg/kg p.o.) of the same compound?
The value was 2731 ± 875.

And the “spontaneous locomotor activity, Total” value (MPTP-treated mice; compound (IX) alone 1 mg/kg p.o.)?
Its value is 4370 ± 1507.
